# Results: US20050075398A1, “Neuroprotectin D1 protects against cellular apoptosis, stroke damage, alzheimer's disease and retinal diseases” (priority 2003, published 2005)
# “Also recorded” adds a separate entry of the source.
# What was measured:
# Bax = assay: Western blot of Bax in ARPE-19 cells under TNFα/H2O2; format: cell-based, human; settings: 50 nM; 800 μM H2O2 along with TNFα, 6 h
# Experimental: Analysis of pro- and anti-apoptotic proteins in ARPE-19 cells: Bcl-2 family proteins were analyzed by Western-blot analysis. In brief, 20-μg equivalents of each cell extract were subjected to electrophoresis on a 8-16% gel (Promega, Madison, Wis.) at 125 volts for 2 h. The proteins were transferred to nitrocellulose membrane at 30 volts for 1 h at 4° C. The membranes were subjected to treatment with primary antibodies of Bcl-2, Bcl-xL, Bax, and Bad for 1 h at room temperature, and probed 30 min with secondary antibody, goat anti-rabbit Ig:HRPO and HRP-conjugated anti-biotin antibody. (BD Sciences—Pharminogen, San Diego, Calif.) Then proteins were evaluated using an ECL kit. (Amersham Biosciences Corp., Piscataway, N.J.)
# Using the same TNFα/H2O2 concentrations, Bcl-2 proteins were assayed. Cells were grown for 72 h after plating, placed in serum-free medium for 1 h, then incubated with TNFα/H2O2 for 6 h. Protein expression and Western-blot analysis were performed as described in Example 13. Data in FIGS. 14A, 14B, 14C and 14D represent four independent experiments with triplicate samples in each case. Anti-apoptotic protein Bcl-xL was enhanced in ARPE-19 cells by TNFα/H2O2 (800 μM) (FIG. 14B, first bar), whereas Bcl-2 was not changed (FIG. 14A, first bar).
# ARPE-19 cells [1] = assay: A2E-induced apoptosis in ARPE-19 cells (Hoechst staining); format: cell-based, human; settings: A2E up to 200 μM
# Experimental: To test the ability of NPD1 to inhibit A2E oxidative stress, ARPE-19 cells grown in 6-well plates were transfected by Fugene 6 with NF-κB promoter sequence linked to a luciferase reporter gene and with IκB-EGFP. Promoterless β-galactosidase was co-transfected in ARPE-19 cells to determine the transfection efficiency. Four hours after transfection, cells were washed and further incubated 8 to 10 h before adding inducers. Two different set of cells were used. One set of cells was serum-starved 5 h before the addition of A2E and TNF-α/H2O2, and further incubated for 20-24 h before harvesting. The other set of cells was not serum-starved or further incubated. Luciferase activity was measured. The IκB-EGFP probe was measured by fluorescence confocal microscopy, and Hoechst-positive cells were identified.
# CEX-1 gene expression = assay: HGU133 GeneChip DNA array in HN cells: CEX-1; format: cell-based, human; settings: Aβ42 25 μM, DHA 50 nM or NPD1 50 nM, 18 h, nsc = no significant change
# ARPE-19 cells [2] = assay: Hoechst staining, TNFα/H2O2 oxidative stress-induced apoptosis; format: cell-based, human
# Experimental: ARPE-19 cell culture and chemicals: ARPE-19 cells (L. M. Hjelmeland, ATCC # CRL-2302) were grown and maintained in DMEM-F12 medium supplemented with 10% FBS and incubated at 37° C. with a constant supply of 5% CO2. ARPE-19 cells are spontaneously transformed human retinal pigment epithelial cells that conserve cellular biological and functional properties. All chemicals were purchased from Sigma Chemical Co. (St. Louis, Mo.) unless otherwise indicated.
# Hoechst staining: ARPE-19 cells were loaded with 2 μM Hoechst dissolved in a Locke's solution (Promega, Madison, Wis.) and incubated one h at 37° C. before imaging. Cells were then washed once with PBS and viewed using a Nikon DIAPHOT 200 microscope under UV fluorescence. Images were recorded by a Hamamatsu Color Chilled 3CCD camera and Photoshop 5.0 software, as described in Mukherjee, P. K., DeCoster, M. A., Campbell, F. Z., Davis, R. J. & Bazan, N. G. (1999) J. Biol. Chem. 274:6493-6498.
# Several experimental conditions that result in reproducible oxidative-stress-induced apoptosis in ARPE-19 cells were tested. One condition chosen was the combination of TNFα with H2O2, both in relatively low concentrations. Typically 10 ng/ml of TNFα and 400-800 μM H2O2 led to marked increase in Hoechst-positive cells (Data not shown). Neither TNFα nor H2O2 alone triggered a significant effect under these conditions. (Data not shown).
# Serum starvation made ARPE-19 cells more sensitive to oxidative stress-triggered apoptosis induced by TNFα/H2O2. Cells were grown in culture for 72 h in the presence of BSA (3.35 μM) with or without DHA (6.7 μM). Endogenous NPD1 formation was enhanced by BSA-DHA (FIG. 12A).
# In the next experiment, confluent cells were starved for 8 h, then TNFα/H2O2 was added and incubated for 14 h before staining with Hoechst reagent. NPD1 (50 nM) was added at the time of adding TNFα/H2O2. […] When the TNFα concentration (10 ng/ml) was maintained and H2O2 concentration was decreased from 800 to 400 μM, fewer Hoechst-positive cells were seen. […] (Data not shown).
# COX-2 gene expression = assay: HGU133 GeneChip DNA array in HN cells: COX-2; format: cell-based, human; settings: Aβ42 25 μM, DHA 50 nM or NPD1 50 nM, 18 h, nsc = no significant change
# COX-1 mRNA = COX-1 mRNA in human neural progenitor cells; format: cell-based
# Experimental: Human neural (HN) progenitor cells in primary culture. HN cells were grown to ˜70% confluence (˜50,000 cells per 3.5-cm diameter well) in 6-well COSTAR plates at 37° C., 5% CO2/20% O2/75% N2 in humidified air at 1 atm (normoxic conditions) in NPMM medium (Clonetics CC-4241) supplemented with hFGF, NSF-1, hEGF, GA-1000, as described by the manufacturer (Clonetics, Walkersville, Md.). HN cells tested negative for HIV-1, hepatitis B and C, mycoplasma, bacteria, yeast, and fungi, and positive for the glial and neuronal markers GFAP, MAP2, and β-tubulin III (Clonetics). After two weeks of development, HN cells were exposed to human recombinant interleukin 1-beta (IL-1β) (10 ng/ml) for 3 h in the presence or absence of 0.03, 0.3, 3.0, 30, and 300 nM 10,17S-docosatriene (NPD1), DHA, or PBS pH 7.4 (control). RNA and protein were quickly isolated using Trizol Reagent (Invitrogen, Carlsbad, Calif.) and stored at −81° C. within minutes of isolation.
# COX-2 RNA abundance in hippocampus and HN cells. Abundance of human-specific COX-1 and COX-2 RNA message was assayed using RT-PCR as described in Bazan, N. G., and Lukiw, W. J. (2002) J. Biol. Chem. 277, 30359-30367.
smiles,measurement,setting,value
"CC/C=C\C[C@H](O)\C=C/C=C/C=C/[C@H](O)C/C=C\C/C=C\CCC(=O)O [NPD1, 10,17S-docosatriene]",decrease of the up regulation of Bax,Bax,65%
same,effect on A2E-induced apoptosis,ARPE-19 cells [1],inhibited
same,"CEX-1 gene expression, fold change over untreated controls",CEX-1 gene expression,nsc
same,inhibition of oxidative stress (TNFα/H2O2)-induced Hoechst-positive cells / apoptosis,"ARPE-19 cells [2]; 50 nM added with TNFα 10 ng/ml plus H2O2 (400-800 μM), 14 h",inhibition; also recorded: inhibited apoptosis
same,inhibition of oxidative stress caused by the lower H2O2 concentration,"ARPE-19 cells [2]; 50 nM, TNFα 10 ng/ml plus H2O2 400 μM",almost completely inhibited
same,"COX-2 gene expression, fold change over untreated controls",COX-2 gene expression,nsc
same,effect on basal level of COX-1 mRNA,COX-1 mRNA,seemed to decrease
